Literature values as cited in patent publication US20170340580A1, “BIOADHESIVE PATCH” (priority 2008, published 2017).

Conditions: 8 mg ml^−1; temperatures up to 37° C.

## NCC(=O)CCC(=O)O [ALA, 5-aminolevulinic acid]
  ALA stability in 0.1 M borate buffer pH 5: up to 6 hours
